Results as given in US9433622B2, “Pyrimidine compounds useful in the treatment of diseases mediated by IKKE and/or TBK1 mechanisms” (DOMAINEX LIMITED, priority 2013, dated 2016).

Legend:
IKKε = IKKε (Homo sapiens (Human), UniProt Q14164); assay: Lanthascreen TR-FRET kinase inhibition assay, IKKε; format: biochemical; details: 20 μM ATP (apparent Km), 2 nM kinase, 1 h
Description: (§1) Compounds of the invention (synthesised as described below) were tested for activity against the IKKε and TBK-1 enzyme as follows:
(§2) Inhibitions studies were performed using a time-resolved fluorescence-based Lanthascreen™ assay. Phosphorylation of a fluorescein-labelled substrate peptide is measured using terbium-labeled phosphospecific antibodies.
(§3) Kinase inhibition assays (10 μL) were performed at 20° C. in 384-well plate format. […] The final reaction conditions contained 400 nM fluorescein-IkBα substrate ([…]), 20 μM ATP, 2 nM or 8 nM IKKε or TBK1 kinase respectively, and 3% DMSO in kinase assay buffer consisting of 50 mM HEPES (pH 7.5), 10 mM MgCl, 1 mM EGTA, 0.01% Brij-35.
(§4) Compound dilutions were prepared from 10 mM DMSO stocks by dilution into DMSO.
(§5) The kinase phosphorylation assay was initiated by the addition of the kinase and the reaction was allowed to proceed for 1 h or 2.5 h for IKKε and TBK-1 kinase respectively.

TBK1 = TBK1 (Homo sapiens (Human), UniProt Q9UHD2); assay: Lanthascreen TR-FRET kinase inhibition assay, TBK1; format: biochemical; details: 20 μM ATP (apparent Km), 8 nM kinase, 2.5 h
Description: as §1, §2, §3, §4, §5

Sequence of TBK1 (Q9UHD2 whole entry): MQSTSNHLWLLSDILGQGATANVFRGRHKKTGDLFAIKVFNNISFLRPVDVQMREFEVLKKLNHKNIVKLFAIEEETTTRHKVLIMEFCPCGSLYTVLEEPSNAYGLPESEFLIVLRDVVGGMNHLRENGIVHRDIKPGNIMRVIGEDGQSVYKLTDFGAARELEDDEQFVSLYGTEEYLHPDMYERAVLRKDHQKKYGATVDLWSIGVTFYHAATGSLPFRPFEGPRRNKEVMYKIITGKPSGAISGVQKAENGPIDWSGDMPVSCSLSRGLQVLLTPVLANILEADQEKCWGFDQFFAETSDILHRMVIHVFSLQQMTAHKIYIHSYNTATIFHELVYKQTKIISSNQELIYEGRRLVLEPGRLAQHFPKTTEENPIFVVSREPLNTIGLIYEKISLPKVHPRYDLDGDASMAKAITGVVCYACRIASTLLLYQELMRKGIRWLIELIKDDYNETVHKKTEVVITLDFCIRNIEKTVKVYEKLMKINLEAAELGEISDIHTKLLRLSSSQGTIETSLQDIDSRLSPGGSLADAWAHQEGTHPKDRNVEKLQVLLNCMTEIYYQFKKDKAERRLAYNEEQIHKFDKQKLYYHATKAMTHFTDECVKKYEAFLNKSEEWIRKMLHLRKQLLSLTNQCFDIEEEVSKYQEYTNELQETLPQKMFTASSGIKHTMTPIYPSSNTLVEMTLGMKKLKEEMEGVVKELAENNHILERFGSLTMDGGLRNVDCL
Sequence of IKKε (Q14164 whole entry): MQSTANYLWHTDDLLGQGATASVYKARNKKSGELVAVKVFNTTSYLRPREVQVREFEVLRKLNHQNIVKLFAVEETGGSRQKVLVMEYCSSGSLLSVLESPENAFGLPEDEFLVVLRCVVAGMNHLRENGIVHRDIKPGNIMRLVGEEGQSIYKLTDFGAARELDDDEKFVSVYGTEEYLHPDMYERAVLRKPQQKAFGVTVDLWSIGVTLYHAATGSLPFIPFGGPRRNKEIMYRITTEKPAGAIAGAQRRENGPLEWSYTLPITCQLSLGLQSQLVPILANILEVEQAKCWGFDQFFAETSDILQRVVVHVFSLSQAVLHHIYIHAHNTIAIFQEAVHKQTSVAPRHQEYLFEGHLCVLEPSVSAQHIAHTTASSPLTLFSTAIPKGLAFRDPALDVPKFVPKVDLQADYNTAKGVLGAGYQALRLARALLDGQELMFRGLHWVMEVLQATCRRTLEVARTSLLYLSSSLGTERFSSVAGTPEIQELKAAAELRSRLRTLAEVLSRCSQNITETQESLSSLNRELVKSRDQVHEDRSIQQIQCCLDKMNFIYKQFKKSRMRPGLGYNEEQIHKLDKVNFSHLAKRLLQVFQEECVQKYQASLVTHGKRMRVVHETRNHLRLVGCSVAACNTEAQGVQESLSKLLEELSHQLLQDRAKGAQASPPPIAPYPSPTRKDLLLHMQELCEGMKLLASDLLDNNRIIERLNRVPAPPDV

| IC50 (IKKε) [nM] | IC50 (TBK1) [nM] | SMILES |
| --- | --- | --- |
| < 15 | < 15 | N#Cc1cc(-c2ccnc(Nc3ccc(CN4CCNC(=O)C4)nc3)n2)cnc1N1CC[C@H](F)C1 [DMX-102, 2-((S)-3-Fluoro-pyrrolidin-1-yl)-5-{2-[6-(3-oxo-piperazin-1-ylmethyl)-pyridin-3-ylamino]-pyrimidin-4-yl}-nicotinonitrile] |
| < 100 | < 30 | N#Cc1cc(-c2ccnc(Nc3ccc(N4CCOCC4)nc3)n2)cnc1N1CC[C@H](O)C1 [DMX-50, 2-((S)-3-Hydroxy-pyrrolidin-1-yl)-5-[2-(6-morpholin-4-yl-pyridin-3-ylamino)-pyrimidin-4-yl]-nicotinonitrile] |
| < 15 | < 15 | N#Cc1cc(-c2ccnc(Nc3ccc(N4CCOCC4)cc3)n2)cnc1N1CC[C@H](O)C1 [DMX-49, 2-((S)-3-Hydroxy-pyrrolidin-1-yl)-5-[2-(4-morpholin-4-yl-phenylamino)-pyrimidin-4-yl]-nicotinonitrile] |
| < 15 | < 15 | CN1CCC(NC(=O)c2ccc(Nc3ncc(F)c(-c4cnc(N5CC[C@H](F)C5)c(C#N)c4)n3)cc2)CC1 [DMX-28, 4-{4-[5-Cyano-6-((S)-3-fluoro-pyrrolidin-1-yl)-pyridin-3-yl]-5-fluoro-pyrimidin-2-ylamino}-N-(1-methyl-piperidin-4-yl)-benzamide] |
| < 15 | < 15 | N#Cc1nc(-c2ccnc(Nc3ccc(CN4CCOCC4)nc3)n2)ccc1N1CC[C@H](F)C1 [DMX-143, 3-((S)-3-Fluoro-pyrrolidin-1-yl)-6-[2-(6-morpholin-4-ylmethyl-pyridin-3-ylamino)-pyrimidin-4-yl]-pyridine-2-carbonitrile] |
| < 100 | < 100 | CC(Nc1ncc(-c2ccnc(Nc3ccc(CN4CCOCC4)nc3)n2)cc1C#N)C(N)=O (centres unmarked) [DMX-134, 2-{3-Cyano-5-[2-(6-morpholin-4-ylmethyl-pyridin-3-ylamino)-pyrimidin-4-yl]-pyridin-2-ylamino}-propionamide] |
| < 1000 | < 100 | CN1CCC(NC(=O)c2cccc(Nc3nccc(-c4cnc(N5CC[C@H](O)C5)c(C#N)c4)n3)c2)CC1 [DMX-12, 3-{4-[5-Cyano-6-((S)-3-hydroxy-pyrrolidin-1-yl)-pyridin-3-yl]-pyrimidin-2-ylamino}-N-(1-methyl-piperidin-4-yl)-benzamide] |
| < 30 | < 30 | CN(CCO)c1cc(Nc2nccc(-c3cnc(N4CC[C@H](F)C4)c(C#N)c3)n2)ccn1 [DMX-101, 2-((S)-3-Fluoro-pyrrolidin-1-yl)-5-(2-{2-[(2-hydroxy-ethyl)-methyl-amino]-pyridin-4-ylamino}-pyrimidin-4-yl)-nicotinonitrile] |
| < 100 | < 100 | N#Cc1cc(-c2ccnc(Nc3ccc(CN4CCCOCC4)nc3)n2)cnc1N1CC[C@H](F)C1 [DMX-103, 2-((S)-3-Fluoro-pyrrolidin-1-yl)-5-[2-(6-[1,4]oxazepan-4-ylmethyl-pyridin-3-ylamino)-pyrimidin-4-yl]-nicotinonitrile] |
| < 100 | < 100 | N#Cc1cc(-c2ccnc(Nc3ccc(CN4CCOCC4)nc3)n2)cnc1N1CCCOCC1 [DMX-84, 5-[2-(6-Morpholin-4-ylmethyl-pyridin-3-ylamino)-pyrimidin-4-yl]-2-[1,4]oxazepan-4-yl-nicotinonitrile] |
| < 100 | < 30 | CN1CCC(Nc2ccc(Nc3nccc(-c4cnc(N5CCC(F)(F)C5)c(C#N)c4)n3)cn2)CC1 [DMX-15, 2-(3,3-Difluoro-pyrrolidin-1-yl)-5-{2-[6-(1-methyl-piperidin-4-ylamino)-pyridin-3-ylamino]-pyrimidin-4-yl}-nicotinonitrile] |
| < 15 | < 15 | N#Cc1nc(-c2ccnc(Nc3ccc(CN4CCNC(=O)C4)nc3)n2)ccc1N1CC[C@H](F)C1 [DMX-156, 3-((S)-3-Fluoro-pyrrolidin-1-yl)-6-{2-[6-(3-oxo-piperazin-1-ylmethyl)-pyridin-3-ylamino]-pyrimidin-4-yl}-pyridine-2-carbonitrile] |
| < 15 | < 30 | CC(C)(O)CNc1ccc(Nc2nccc(-c3cnc(N4CC[C@H](F)C4)c(C#N)c3)n2)cn1 [DMX-22, 2-((S)-3-Fluoro-pyrrolidin-1-yl)-5-{2-[6-(2-hydroxy-2-methyl-propylamino)-pyridin-3-ylamino]-pyrimidin-4-yl}-nicotinonitrile] |
| < 1000 | < 1000 | COCCN(C)c1ncc(-c2ccnc(Nc3ccc(CN4CCOCC4)nc3)n2)cc1C#N [DMX-140, 2-[(2-Methoxy-ethyl]-methyl-amino]-5-[2-(6-morpholin-4-ylmethyl-pyridin-3-ylamino)-pyrimidin-4-yl]-nicotinonitrile] |
| < 30 | < 15 | N#Cc1cc(-c2ccnc(Nc3ccnc(NC(=O)CN4CCOCC4)c3)n2)cnc1N1CC[C@@H](F)C1 [DMX-111, N-(4-{4-[5-Cyano-6-((R)-3-fluoro-pyrrolidin-1-yl)-pyridin-3-yl]-pyrimidin-2-ylamino}-pyridin-2-yl)-2-morpholin-4-yl-acetamide] |
| < 15 | < 30 | N#Cc1cc(-c2ccnc(Nc3ccc(NCCN4CCOCC4)nc3)n2)cnc1N1CC[C@H](F)C1 [DMX-67, 2-((S)-3-Fluoro-pyrrolidin-1-yl)-5-{2-[6-(2-morpholin-4-yl-ethylamino)-pyridin-3-ylamino]-pyrimidin-4-yl}-nicotinonitrile] |
| < 100 | < 30 | N#Cc1cc(-c2ccnc(Nc3ccc(NC(=O)CN4CCNCC4)nc3)n2)cnc1N1CC[C@H](F)C1 [DMX-31, N-(5-{4-[5-Cyano-6-((S)-3-fluoro-pyrrolidin-1-yl)-pyridin-3-yl]-pyrimidin-2-ylamino}-pyridin-2-yl)-2-piperazin-1-yl-acetamide] |
| < 1000 | < 100 | N#Cc1cc(-c2nc(Nc3ccnc(NC(=O)CN4CCOCC4)c3)ncc2F)cnc1N1CCCOCC1 [DMX-94, N-{4-[4-(5-Cyano-6-[1,4]oxazepan-4-yl-pyridin-3-yl)-5-fluoro-pyrimidin-2-ylamino]-pyridin-2-yl}-2-morpholin-4-yl-acetamide] |
| < 30 | < 30 | N#Cc1cc(-c2ccnc(Nc3cnn(CCO)c3)n2)cnc1N1CC[C@H](F)C1 [DMX-51, 2-((S)-3-Fluoro-pyrrolidin-1-yl)-5-{2-[1-(2-hydroxy-ethyl)-1H-pyrazol-4-ylamino]-pyrimidin-4-yl}-nicotinonitrile] |
| < 100 | < 100 | CN(c1ncc(-c2ccnc(Nc3ccc(CN4CCOCC4)nc3)n2)cc1C#N)C1CCOC1 (centres unmarked) [DMX-163, 2-[Methyl-(tetrahydro-furan-3-yl)-amino]-5-[2-(6-morpholin-4-ylmethyl-pyridin-3-ylamino)-pyrimidin-4-yl]-nicotinonitrile] |
| < 30 | < 15 | N#Cc1nc(-c2ccnc(Nc3ccc(N4CCOCC4)cc3)n2)ccc1N1CC[C@H](O)C1 [DMX-57, 3-((S)-3-Hydroxy-pyrrolidin-1-yl)-6-[2-(4-morpholin-4-yl-phenylamino)-pyrimidin-4-yl]-pyridine-2-carbonitrile] |
| < 100 | < 100 | CN1CCC(Nc2ccc(Nc3nccc(-c4cnc(N[C@@H]5CCOC5)c(C#N)c4)n3)cn2)CC1 [DMX-114, 5-{2-[6-(1-Methyl-piperidin-4-ylamino)-pyridin-3-ylamino]-pyrimidin-4-yl}-2-[(R)-(tetrahydro-furan-3-yl)amino]-nicotinonitrile] |
